Laboratory results reported in patent US20230096766A1, “AMINO ACID HAVING FUNCTIONAL GROUP CAPABLE OF INTERMOLECULAR HYDROGEN BONDING, PEPTIDE COMPOUND CONTAINING SAME AND METHOD FOR PRODUCTION THEREOF” (Chugai Seiyaku Kabushiki Kaisha, priority 2018, published 2023).
Read-outs that look alike come from different tables or passages of the source. Where a SMILES comes first, the peptide text is derived from it. Bridges are numbered along the chain shown (N, C = ends). [ ]: non-standard residue; d: D form. The star is where a group is joined. NMeHph(3-OMe-4-CONHMe) = CNC(=O)c1ccc(CC[C@H](NC)C(=O)O)cc1OC; NMeAbu(3,3-F2-piperidino) = CN[C@@H](CCN1CCCC(F)(F)C1)C(=O)O; Ethyl(2-morpholino) = C1CN(CC*)CCO1; NMeF = CN[C@@H](Cc1ccccc1)C(=O)O; NMeD = CN[C@@H](CC(=O)O)C(=O)O; CH2CONHtBu = CC(C)(C)NC(=O)C*; NMeL = CN[C@@H](CC(C)C)C(=O)O; NMeV = CN[C@H](C(=O)O)C(C)C; NMeAbu = CC[C@H](NC)C(=O)O; NMeA = CN[C@@H](C)C(=O)O; Piperidide = C1CCN(*)CC1; NBuGly = CCCCNCC(=O)O; NPrGly = CCCNCC(=O)O; Bn = c1ccc(C*)cc1; Sar = CNCC(=O)O; tBu = CC(C)(C)*

Experiments:
Caco-2 = test: Membrane permeability test of cyclic peptides (Caco-2, modified/improved method of WO 2018/124162)
[1] = as above; settings: human, Caco-2, Caco-2 (cm/sec)
[2] = Actual measurement of pKa of amino acid side chains by titration (Sirius T3) on three-residue peptides; assay type: physicochemical; settings: for pKa / basic pKa: measured by titration (Sirius T3), 25° C., 0.15M; for pKa: amino acid X in three-residue peptide ZMeGly-X-MeGly-pip (Table 24, second part); for basic pKa: amino acid X in three-residue peptide ZMeGly-X-MeGly-pip (Table 24)
Description: pKas and basic pKas can be determined by a conventional method. For example, they can be measured by a method such as that described in Experimental Chemistry Lecture 5, “Thermal Measurements and Equilibrium”, p. 460 (edited by The Chemical Society of Japan, published by Maruzen Co., Ltd.). More specifically, they can be measured by a method described in Reference Example 3-1.
Herein, measurement of pKas of amino acid side chains was carried out according to the following procedure.
Sirius T3 (Sirius Analytical Instruments Ltd., Forest Row, East Sussex, RH18 5DW, UK)
0.15 M KCl was added to about 1 mg of a test substance as a powder or in about 100 μL of a 10 mM DMSO solution. When the test substance was a basic compound, 0.5 M HCl was added until pH 2 and the test substance was then titrated to pH 12 with 0.5 M KOH.
When the test substance was an acidic compound, 0.5 M KOH was added until pH 12 and the test substance was then titrated to pH 2 with 0.5 M HCl.
Titration operations were automatically performed by T3 manufactured by Sirius, and pKas were determined from the resulting titration curves using Sirius T3 Refinement software.
pKas were similarly determined using imipramine HCl, propranolol HCl, and warfarin as reference compounds, and were confirmed to be within the test results obtained in Sirius. pKas of amino acid side chains were determined by synthesizing a sequence in which the amino acid to be evaluated is introduced into the second residue (the position X in the following table) of a peptide composed of three residues as shown below.

[3] = membrane permeability of cyclic peptides, Caco-2

Question: With `CCCN1CC(=O)N(C)[C@@H](CC(C)C)C(=O)N[C@@H](CC(C)C)C(=O)N(C)[C@@H](Cc2ccccc2)C(=O)N(C)[C@@H](C)C(=O)N[C@H](C(=O)N2CCCCC2)CC(=O)N[C@H](CC(C)C)C(=O)N(C)[C@@H](Cc2ccccc2)C(=O)N[C@@H](COCC(=O)NC(C)(C)C)C(=O)N(C)[C@@H](CC(C)C)C(=O)N[C@@H]([C@@H](C)O)C1=O` [AP11] ([dL][NMeF]S(CH2CONHtBu)[NMeL]T[NPrGly][NMeL]L[NMeF][NMeA]D-Piperidide; lactam N-11) as the molecule, how does the “Caco-2” value (Caco-2; [3]) read?
Answer: The value was 1.1e-06 cm/s.

Question: Which “Caco-2” value (Caco-2; [3]) does the source give for `CNC(=O)c1ccc(CC[C@H]2C(=O)N[C@@H]([C@@H](C)O)C(=O)N(C)CC(=O)N(C)[C@@H](CC(C)C)C(=O)N[C@@H](CC(C)C)C(=O)N(C)[C@@H](Cc3ccccc3)C(=O)N(C)[C@@H](CC(C)C)C(=O)N[C@H](C(=O)N3CCCCC3)CC(=O)N[C@H](C(C)C)C(=O)N(C)[C@@H](CC(C)C)C(=O)N[C@@H](C(C)C)C(=O)N2C)cc1OC` [AP226] ([dV][NMeL]V[NMeHph(3-OMe-4-CONHMe)]T[Sar][NMeL]L[NMeF][NMeL]D-Piperidide; lactam N-11) here?
Answer: Its value is 1e-06 cm/s.

Question: What about the Papp [1, 3] of the same molecule?
Answer: Its Papp is 0.57 ×10⁻⁶ cm/s.

Question: Which pKa [2] does the source give for `CN[C@@H](CCc1noc(=O)[nH]1)C(=O)O` [MeAbu(5-Oxo-Odz)] here?
Answer: Its pKa is 5.7.

Question: Which “basic pKa” value [2] does the source give for `CN[C@@H](CCN1CCOCC1)C(=O)O` [MeAbu(Mor)] here?
Answer: Its value is 6.8.

Question: Which pKa [2] does the source give for `CN[C@@H](CCN1CCCC(F)(F)C1)C(=O)O` [MeAbu(pip-3-F2)] here?
Answer: The pKa was 5.7.

Question: For `CN[C@@H](CCN1CCC(F)(F)CC1)C(=O)O` [MeAbu(pip-4-F2)], which “basic pKa” value [2] is on record?
Answer: Its value is 6.7.

Question: Which “membrane permeability compared with counterpart peptides” value (Caco-2; pairwise comparison of matched cyclic peptides, result in words) does the source give for `CC(C)(CO)COC[C@H](N)C(=O)O` [Ser(2-Me2-PrOH), O-(3-hydroxy-2,2-dimethylpropyl)-L-serine] here?
Answer: The value was “tended to have better membrane permeability than Ser(nPrOH)”.

Question: For `N[C@@H](COCCN1CCOCC1)C(=O)O` [Ser(Et-2-Mor)], which “basic pKa” value [2] is on record?
Answer: Its value is 7.2.

Question: For `CN(C)CCOC[C@H](N)C(=O)O` [Ser(Et-2-NMe2)], which “measured basic pKa” value ([2]; amino acid side chain, Sirius T3 titration) is on record?
Answer: Its value is 9.1.

Question: For `CC(C)C[C@@H]1NC(=O)[C@H](C)N(C)C(=O)C[C@@H](C(=O)N2CCCCC2)NC(=O)[C@H](CC(C)C)N(C)C(=O)CN(C)C(=O)[C@H]([C@@H](C)O)NC(=O)[C@H](C)N(C)C(=O)[C@H](Cc2ccccc2)N(C)C(=O)[C@H](COCc2ccccc2)NC(=O)[C@H](Cc2ccccc2)N(C)C(=O)[C@H](CC(C)C)N(C)C1=O` [pd179] ([NMeA]L[NMeL][NMeF]S(Bn)[NMeF][NMeA]T[Sar][NMeL]D-Piperidide; lactam N-11), which “Caco-2” value (Caco-2; Table 36, Papp, sequences having Papp ≥ 1.0 × 10^−6 at ARC = 3) is on record?
Answer: Its value is 2e-06 cm/s.

Question: What about the Papp ([1]; Table 35, Papp, sequences having Papp ≥ 1.0 × 10^−6 at ARC = 3) of the same molecule?
Answer: The Papp was 2 ×10⁻⁶ cm/s.

Question: With `CC(C)C[C@@H]1NC(=O)[C@H](Cc2ccccc2)N(C)C(=O)[C@@H](C)NC(=O)C[C@@H](C(=O)N2CCCCC2)N(C)C(=O)[C@H](Cc2ccccc2)N(C)C(=O)[C@H](Cc2ccccc2)N(C)C(=O)[C@H](COC(C)(C)C)NC(=O)[C@H](CC(C)C)N(C)C(=O)CN(C)C(=O)[C@H]([C@@H](C)O)NC(=O)[C@H](CC(C)C)N(C)C1=O` [pd224] ([dA][NMeF]L[NMeL]T[Sar][NMeL]S(tBu)[NMeF][NMeF][NMeD]-Piperidide; lactam N-11) as the molecule, how does the Papp (Caco-2, Caco-2 (cm/sec)) read?
Answer: Its Papp is 1 ×10⁻⁶ cm/s.

Question: Which Papp (Caco-2, Caco-2 (cm/sec)) does the source give for `CC[C@H](C)[C@@H]1NC(=O)[C@H](CC(C)C)N(C)C(=O)CN(C)C(=O)[C@H]([C@@H](C)O)NC(=O)[C@H](Cc2ccccc2)N(C)C(=O)[C@H](CC(C)C)NC(=O)[C@H](Cc2ccccc2)N(C)C(=O)[C@@H](CC(C)C)NC(=O)C[C@@H](C(=O)N2CCCCC2)NC(=O)[C@H](CC(C)C)N(C)C(=O)[C@H](Cc2ccccc2)N(C)C1=O` [pd225] ([dL][NMeF]L[NMeF]T[Sar][NMeL]I[NMeF][NMeL]D-Piperidide; lactam N-11) here?
Answer: Its Papp is 1 ×10⁻⁶ cm/s.

Question: Which Papp (Caco-2, Caco-2 (cm/sec) Papp) does the source give for `CC(C)C[C@@H]1NC(=O)CN(C)C(=O)[C@H](Cc2ccccc2)N(C)C(=O)[C@@H](C)NC(=O)C[C@@H](C(=O)N2CCCCC2)NC(=O)[C@H](Cc2ccccc2)N(C)C(=O)[C@H](Cc2ccccc2)N(C)C(=O)[C@H](COC(C)(C)C)NC(=O)[C@H](CC(C)C)N(C)C(=O)[C@H](Cc2ccccc2)NC(=O)[C@H]([C@@H](C)O)NC1=O` [pd248] ([dA][NMeF][Sar]LTF[NMeL]S(tBu)[NMeF][NMeF]D-Piperidide; lactam N-11) here?
Answer: The Papp was 0.014 ×10⁻⁶ cm/s.

Question: Which Papp (Caco-2, Caco-2) does the source give for `CC(C)C[C@@H]1NC(=O)[C@H](Cc2ccccc2)N(C)C(=O)[C@@H](C(C)C)NC(=O)C[C@@H](C(=O)N2CCCCC2)NC(=O)[C@H](C(C)C)N(C)C(=O)[C@H](Cc2ccccc2)N(C)C(=O)[C@H](COC(C)(C)C)NC(=O)[C@H](CCN2CCCC(F)(F)C2)N(C)C(=O)CN(C)C(=O)[C@H]([C@@H](C)O)NC(=O)[C@H](CC(C)C)N(C)C1=O` [pd387] ([dV][NMeF]L[NMeL]T[Sar][NMeAbu(3,3-F2-piperidino)]S(tBu)[NMeF][NMeV]D-Piperidide; lactam N-11) here?
Answer: Its Papp is 3.5 ×10⁻⁶ cm/s.

Question: For `CCCCN1CC(=O)N(C)[C@@H](CC(C)C)C(=O)N[C@H](C(=O)N2CCCCC2)CC(=O)N(C)[C@@H](CC)C(=O)N[C@@H](CC(C)C)C(=O)N(C)[C@@H](CC(C)C)C(=O)N(C)[C@@H](Cc2ccccc2)C(=O)N[C@@H](COCCN2CCOCC2)C(=O)N(C)[C@@H](CC)C(=O)N(C)[C@@H](CC(C)C)C(=O)N[C@@H]([C@@H](C)O)C1=O` [pd482] ([NMeAbu]L[NMeL][NMeF]S(Ethyl(2-morpholino))[NMeAbu][NMeL]T[NBuGly][NMeL]D-Piperidide; lactam N-11), which Caco-2 (Caco-2; Papp, membrane permeability, cyclic peptides comprising MeAbu(pip-4-F2), MeAbu(Mor), Ser(Et-2-Mor), MeAbu(pip-3-F2) or Abu(5-Oxo-Odz) (Table 29)) is on record?
Answer: Its Caco-2 is 1.1e-06 cm/s.
